# Measured values: US20260027071A1, “COMPOSITION FOR PROMOTING COLLAGEN PRODUCTION COMPRISING AMIDATED AMINO ACID” (KYUNGPOOK NATIONAL UNIVERSITY INDUSTRY-ACADEMIC COOPERATION …, priority 2022, published 2026)
# “Also recorded” adds a separate entry of the source.
# Experiments:
# human dermal fibroblasts = assay: Wound healing (wound closure) assay, Oris cell migration kit; type: cell-based; details: HDF
# Experimental: Wound closure analysis was performed using the Oris™ Universal Cell Migration Assembly kit (Platinus Technologies, WI, USA) according to the manufacturer's instructions. The Oris™ stoppers were inserted into each well of the Oris™-compatible 96-well plate, and the plate was inverted to check for complete stopper attachment. A suspension of human dermal fibroblasts in IMDM was added to each well (1×10^4 cells in 100 μL per well) and incubated for 12 hours to allow cell attachment. Then, the stoppers were removed using the stopper tool, and the medium was aspirated using a pipette. The wells were gently washed with 100 μL PBS to remove unattached cells, and the attached cells were treated with drugs in 100 μL culture medium for the specified time, respectively. Images of the wounds were obtained using a phase-contrast microscope (Eclipse TS 100, Nikon Instruments Inc., Melville, NY, USA). The wound areas in the images were quantified using the NIH Image J program. Wound closure (%) was calculated using the following equation: Wound closure (%)=[(A0−At)/A0]×100, where A0 is the area of the original wound and At is the wound area measured at the specified time.
# [1] = test system: Human dermal fibroblasts (HDF); assay: Collagen protein in conditioned media (Sircol Collagen Assay) of human dermal fibroblasts; type: cell-based; details: for collagen production (collagen levels secreted into the media): HDF treated at 1 mM, result in words
# Experimental: (§1) The collagen protein levels in the conditioned media were evaluated using the Sircol™ Collagen Assay (Biocolor, Antrim, UK) according to the manufacturer's instructions. […] After discarding the media, the cells were washed with 500 μL of phosphate-buffered saline (PBS), then incubated in 1 mL of serum-free media for another 24 hours. A 1.0 mL media sample (either conditioned media or fresh media as a negative control) was transferred to a microcentrifuge tube, mixed with 100 μL of collagen isolation and concentration reagent, and incubated overnight at 4° C. The samples were centrifuged at 13,000×g for 10 minutes at 4° C., and the supernatant was carefully removed using a pipette without disturbing the pellet. Each tube was then added with 500 μL of Sircol dye reagent, inverted five times, and shaken at room temperature for 30 minutes. After centrifugation, the supernatant was discarded, and the pellet was washed with 500 μL of cold acid-salt washing reagent, followed by another centrifugation step. The pellet was then dissolved in 250 μL of alkali reagent, and a 200 μL portion was transferred to a 96-well plate. The optical density of the solution was read at 555 nm using a Spectrostar Nano microplate reader (BMG LABTECH GmbH, Ortenberg, Germany).
# [2] = test system: Human dermal fibroblasts (HDF); details: 48 h
# Experimental: (§2) Human dermal fibroblasts (HDF) extracted from adult skin were obtained from Cascade Biologics (Portland, OR, USA), and human articular chondrocytes (HAC), human follicle dermal papilla cells (HFCPC), human aortic endothelial cells (HAoEC), and human osteoblasts (HOB) were obtained from PromoCell (Heidelberg, Germany). The cells were cultured in a closed incubator at 37° C. in humidified air comprising 5% CO2. The growth medium for HDF consisted of Iscove's Modified Dulbecco's Medium (IMDM) (Gibco BRL, Grand Island, NY, USA) supplemented with 10% fetal bovine serum (Hyclone, South Logan, UT) and 1% antibiotics (100 U·mL^−1 penicillin, 0.1 mg·mL^−1 streptomycin).
# (§3) The cell viability was evaluated using the MTT assay. Briefly, HDF (1×10^4 cells per well), HAC (5×10^3 cells per well), HFDPC (1×10^4 cells per well), HAoEC (5×10^3 cells per well), and HOB (2×10^3 cells per well) were cultured in growth media in a 96-well culture plate for 24 hours, followed by treatment with each drug for 48 hours. After discarding the media, the cells were incubated at 37° C. for 2 hours in fresh growth media (100 μL) containing 1 mg·mL^−1 MTT (Amresco, Solon, OH, USA). The media was removed by aspiration, and the formazan dye accumulated inside the cells was dissolved in 100 μL of dimethyl sulfoxide. The absorbance of the solution was measured at 570 nm using a Spetrostar Nano microplate reader (BMG LABTECH GmbH, Ortenberg, Germany).
# [3] = test system: human articular chondrocytes (HAC); assay: Cell viability / proliferation (MTT assay) in human articular chondrocytes; type: cell-based; details: for cell viability compared to the control group: concentration series (FIGS. 13g to 13l)
# Experimental: The cell viability was evaluated using the MTT assay.
# [4] = test system: Human dermal fibroblasts (HDF); assay: Cell viability / proliferation (MTT assay) in human dermal fibroblasts; details: for cell proliferation (MTT reduction): concentration series (FIGS. 13a to 13f)
# Experimental: as §2, §3
# [5] = test system: human articular chondrocytes (HAC); assay: Collagen protein (Sircol Collagen Assay) in human articular chondrocytes; type: cell-based; details: for increase in collagen production compared to the control: absence of TGF-β1
# Experimental: as §1
# [6] = test system: human follicle dermal papilla cells (HFCPC); assay: Collagen protein (Sircol Collagen Assay) in human follicle dermal papilla cells; type: cell-based; details: 1 mM
# Experimental: as §1
# [7] = test system: human aortic endothelial cells (HAoEC); assay: Collagen protein (Sircol Collagen Assay) in human aortic endothelial cells; type: cell-based; details: 1 mM
# Experimental: as §1
# human osteoblasts (HOB) = assay: Collagen protein (Sircol Collagen Assay) in human osteoblasts; type: cell-based; details: 1 mM
# Experimental: as §1
# [8] = HDF, 1 mM each, absence of TGF-β1 (FIG. 5a)
# [9] = HDF, concentration series (FIGS. 13a to 13f)
compound,measurement,setting,value
"O=C1O[C@H]([C@@H](O)CO)C(O)=C1O [ascorbic acid, reference compound]",change in wound closure induced by treatment,human dermal fibroblasts; 24 hours after treatment,9.1%
same,change in wound closure induced by treatment,human dermal fibroblasts; after 12 hours of treatment,2.5%
same,collagen production (collagen levels secreted into the media),[1],increased collagen production
same,increase in collagen production compared to the control,[1]; [8],23.1%
same,collagen production,"[1]; HDF, 3 and 5 mM",significantly reduced
same,concentrations at which collagen production increased,"[1]; HDF, non-cytotoxic concentrations (FIG. 10b)",10 to 1000 µM
same,concentrations with no effect on cell viability,[2],≤ 1000 µM
"Cl.N[C@H]1C(O)O[C@H](CO)[C@@H](O)[C@@H]1O (stereo partly drawn) [glucosamine, glucosamine HCl, reference compound]",increase in collagen production compared to the control,"[1]; HDF, 0.5 mM, absence of TGF-β1",118.6%
same,collagen production,[1]; [9],increased collagen production
same,cell viability,"[3]; HAC, 0.5 mM",without affecting cell viability
same,cell proliferation (MTT reduction),[4]; HDF,did not affect cell proliferation
same,collagen production,[5]; 0.5 mM,increased collagen production
same,increase in collagen production compared to the control,[5]; 0.5 mM,147.6%
"Cl.NCC(N)=O [glycinamide, Glycinamide HCl]",collagen production,[6],most effective among the amidated amino acids
same,change in wound closure induced by treatment,human dermal fibroblasts; 24 hours after treatment,19.2%
same,change in wound closure induced by treatment,human dermal fibroblasts; after 12 hours of treatment,6.3%
same,wound closure,"human dermal fibroblasts; treated alone, up to 48 hours (FIG. 8b)",promoted wound closure
same,collagen production (collagen levels secreted into the media),[1]; HCl,most effective; also recorded: highest collagen production-promoting effect
same,collagen production (collagen levels secreted into the media),"[1]; listed as glycylamine, HCl",superior collagen-promoting effect compared to all free amino acids
same,"change in collagen production, individual treatment","[1]; HDF, 100 μM",27.2%
same,increase in collagen production compared to the control,"[1]; HDF, 0.5 mM, absence of TGF-β1",139.2%
same,"change in collagen production, individual treatment","[1]; HDF, 1000 μM",75.7%
same,increase in collagen production compared to the control,[1]; [8],68.2%
same,change in collagen production induced by individual treatment,"[1]; HDF, FIG. 7b, concentration not given",67.4%
same,collagen production,[1]; [9],increased collagen production in a concentration-dependent manner
same,collagen production,[7],most effective among the amidated amino acids
same,cell viability compared to the control group,[3]; HAC,slightly but significantly increased cell viability
same,cell viability,"[4]; HDF treated at 1 mM, result in words",no significant change in cell viability
same,cell proliferation (MTT reduction),[4]; HDF,did not affect cell proliferation
same,collagen production,[5]; 0.5 mM,enhancing collagen production
same,increase in collagen production compared to the control,[5]; 0.5 mM,181.3%
same,collagen production,[5]; 1 mM,most effective among the amidated amino acids
same,increase in collagen production (greatest effect),[5]; 2 mM,238.6%
same,collagen production,human osteoblasts (HOB),most effective among the amidated amino acids
same,collagen production effect,human osteoblasts (HOB),433.8%
TGF-β1: Recombinant human TGF-β1 protein purchased from R&D Systems,wound closure compared to the control,human dermal fibroblasts; 12 and 24 hours post-treatment,significantly improved wound closure
same,collagen production,"[1]; HDF, TGF-β1 10 ng mL^−1 alone",effect of enhancing collagen production
same,collagen production,[1]; [9],collagen production enhancement effect that surpassed its cell proliferation effect
same,cell proliferation compared to the control,[3]; HAC (FIGS. 14a to 14d),better cell proliferation compared to the control
same,cell viability compared to the control group,[3]; HAC,slightly but significantly increased cell viability
same,cell proliferation compared to the control,[4]; HDF (FIGS. 14a to 14d),better cell proliferation compared to the control
same,cell proliferation (MTT reduction),[4]; HDF,increased the proliferation
same,increase in number of viable cells compared to the control,"[4]; HDF, TGF-β1 10 ng mL^−1, or ascorbic acid 1 mM + glycinamide 1 mM (FIG. 5b)",44.5%
same,collagen production,[5]; TGF-β1 10 ng mL^−1 alone,effect of enhancing collagen production
same,collagen production,[5]; TGF-β1 up to 10 ng mL-1,improved collagen production in a dose-dependent manner
